Test results published in patent publication US20100048606A1, “10-Substituted Cytisine Derivatives and Methods of Use Thereof” (Georgetown University Office of Technology Commercialization, priority 2006, published 2010).
pEC50, pKi: −log10 of the molar value. Where two headings read alike, the source gives them in different places.

Assays:
α4β2 nAChR [1] = target: T1, α4β2 nAChR (Rattus norvegicus, UniProt P09483+P12390); assay: Competition binding with [3H]epibatidine, membrane homogenates of stably transfected cells; conditions: for Affinity ratio (α3β4/α4β2): Ki α3β4 divided by Ki α4β2; for potency estimated from few doses: read-out: Estimated Ki α4β2
T1 construct: expressed in transfected cells

[2] = target: nAChRs of rat forebrain tissue (Rattus norvegicus, UniProt P09483+P12390); type: binding; conditions: for pKi: mean of three to five independent measurements
α3β2 nAChR = target: T2, α3β2 nAChR (Rattus norvegicus, UniProt P04757+P12390); assay: Competition binding with [3H]epibatidine, membrane homogenates of stably transfected cells; conditions: for potency estimated from few doses: read-out: Estimated Ki α3β2
T2 construct: expressed in transfected cells

α2β2 nAChR = target: T3, α2β2 nAChR (Rattus norvegicus, UniProt P12389+P12390); assay: as above; conditions: for potency estimated from few doses: read-out: Estimated Ki α2β2
T3 construct: expressed in transfected cells

α2β4 nAChR = target: T4, α2β4 nAChR (Rattus norvegicus, UniProt P12389+P12392); assay: as above; conditions: for potency estimated from few doses: read-out: Estimated Ki α2β4
T4 construct: expressed in transfected cells

α4β4 nAChR = target: T5, α4β4 nAChR (Rattus norvegicus, UniProt P09483+P12392); assay: as above; conditions: for potency estimated from few doses: read-out: Estimated Ki α4β4
T5 construct: expressed in transfected cells

α3β4 nAChR = target: T6, α3β4 nAChR (Rattus norvegicus, UniProt P04757+P12392); assay: as above; conditions: for potency estimated from few doses: read-out: Estimated Ki α3β4
T6 construct: expressed in transfected cells

α6β42 = assay: Primary screening, single concentration competition binding assay; conditions: estimated from single concentration (10 μM) competition binding, read-out: Estimated Ki α6β42
[3] = target: rat α3β4 nAChRs (KXα3β4R2 cells) (Rattus norvegicus, UniProt P04757+P12392); assay: cell-based; conditions: read-out: Relative Emax (% of nicotine Emax) α3β4 nAChR's
α4β2 nAChR's = target: T7, α4β2 nAChR's (Homo sapiens, UniProt P17787+P43681); assay: 86Rb+ efflux assay, agonist activity; type: cell-based; conditions: for Agonist activity at α4β2 (86Rb+ efflux): tested at 0.1, 1, 10 and 100 μM
T7 construct: expressed in transfected cells

[4] = background statement; cited from earlier work
α4β2 nAChR [5] = target: T8, α4β2 nAChR (Homo sapiens, UniProt P17787+P43681); conditions: read-out: EC50 (partial agonist at α4β2 nAChR); reported in the literature; cited from earlier work
α4β2 nAChR [6] = target: T8, α4β2 nAChR; conditions: read-out: Ki (binding affinity); reported in the literature; cited from earlier work
α3β4 nAChR subtype = target: T9, α3β4 nAChR subtype (Rattus norvegicus, UniProt P04757+P12392); assay: Antagonist activity, block of nicotine stimulated responses; type: cell-based; conditions: for Inhibition of the function of the α3β4 nAChR subtype: at 100 μM; for Block of nicotine stimulated responses at α3β4: concentrations up to 10 μM
T9 construct: expressed in transfected cells; host or cells: KXα3β4R2 cells (named in the result head)
Method: (§1) Compounds 15 and 17a are antagonists of the α4β2 nAChR subtype. […] Compounds 15 and 17a were tested for their antagonist activities at the α4β2 and α3β4 receptors at concentrations from 0.1 μM to 100 μM. […] This is typical of most classical nicotinic ligands.^34

α4β2 nAChR subtype = target: T10, α4β2 nAChR subtype (Homo sapiens, UniProt P17787+P43681); assay: as above; type: cell-based; conditions: for inhibition at 100 µM: read-out: Inhibition of the function of the α4β2 nAChR subtype; for Block of nicotine stimulated responses at α4β2: concentrations up to 10 μM
T10 construct: expressed in transfected cells
Method: as §1

[7] = mean of three to five independent measurements, [3H]epibatidine, read-out: Ki α4β2
[8] = mean of three to five independent measurements, [3H]epibatidine, read-out: Ki α3β2
[9] = mean of three to five independent measurements, [3H]epibatidine, read-out: Ki α2β2
[10] = mean of three to five independent measurements, [3H]epibatidine, read-out: Ki α2β4
[11] = mean of three to five independent measurements, [3H]epibatidine, read-out: Ki α4β4
[12] = mean of three to five independent measurements, [3H]epibatidine, read-out: Ki α3β4
[13] = primary screening, estimated from single concentration (10 μM) competition binding
[14] = estimated from single run concentration binding assay

| Compound | Affinity ratio (α3β4/α4β2) (α4β2 nAChR [1]) | pKi (α4β2 nAChR [1]; [7]) | pKi [2] | pKi (α3β2 nAChR; [8]) | pKi (α2β2 nAChR; [9]) | pKi (α2β4 nAChR; [10]) | pKi (α4β4 nAChR; [11]) | pKi (α3β4 nAChR; [12]) | potency estimated from few doses (α4β2 nAChR [1]; [13]) [µM] | potency estimated from few doses (α6β42) [µM] | potency estimated from few doses (α3β2 nAChR; [13]) [µM] | potency estimated from few doses (α2β4 nAChR; [13]) [µM] | potency estimated from few doses (α4β4 nAChR; [13]) [µM] | potency estimated from few doses (α3β4 nAChR; [13]) [µM] | also measured |
| --- | --- | --- | --- | --- | --- | --- | --- | --- | --- | --- | --- | --- | --- | --- | --- |
| COC(=O)[C@H]1C2CNCC(C2)c2cccc(=O)n21 (single isomer, unassigned; (-)) [(−)-22, 8-Oxo-1,3,4,5,6,8-hexahydro-2H-1,5-methano-pyrido[1,2-a][1,5]diazocine-6-carboxylic acid methyl ester] | 13 | 4.62 | 4.32 | 3.60 | 4.77 | 4.12 | 4.48 | 3.49 |  |  |  |  |  |  |  |
| CN1CCCC(Cn2ccccc2=O)C1 (centres unmarked) [Compound 6b, 1-[(1-Methylpiperidin-3-yl)methyl]pyridin-2(1H)-one] |  |  |  |  |  |  |  |  | 0.98 | 76 | 6 | 180 | 2.6 | 160 | potency estimated from few doses (α2β2 nAChR; [13]): 19 µM |
| CN1CCCC1c1cccnc1 (single isomer, unassigned; (-)) [(−)-Nicotine, reference compound] |  |  |  |  |  |  |  |  |  |  |  |  |  |  | Emax [3]: 100%; Emax (α4β2 nAChR's; read-out: Relative Emax (% of nicotine Emax) α4β2 nAChR's, 86Rb+ efflux, mean ± standard error of three experiments): 100% |
| O=c1ccccn1CC1CCN(Cc2ccccc2)CC1 [Compound 7b, 1-[(1-Benzyl-piperidin-4-yl)methyl]pyridin-2(1H)-one] |  |  |  |  |  |  |  |  | 1.3 | 470 | 7.3 | 440 | 4.5 | 620 | potency estimated from few doses (α2β2 nAChR; [13]): 26 µM |
| Clc1ccc(C2CC3CCC2N3)cn1 (racemic) [(±)-Epibatidine] |  |  |  |  |  |  |  |  |  |  |  |  |  |  | Analgesic potency [4]: approximately 500 times that of morphine |
| 10-Cyclohexyl(methoxymethyl)-1,2,3,4,5,6-hexahydro-1,5-methano-pyrido[1,2-a][1,5]diazocin-8-one [rac-25] | >862 |  |  |  |  |  |  |  |  |  |  |  |  |  | potency estimated from few doses (α4β2 nAChR [1]; [14]): < 0.029 µM; potency estimated from few doses ([2]; estimated from single run concentration binding assay, read-out: Estimated Ki Forebrain): 0.17 µM; potency estimated from few doses (α3β2 nAChR; [14]): 0.8 µM; potency estimated from few doses (α2β2 nAChR; [14]): < 0.017 µM; potency estimated from few doses (α2β4 nAChR; [14]): 0.78 µM; potency estimated from few doses (α4β4 nAChR; [14]): 0.15 µM; potency estimated from few doses (α3β4 nAChR; [14]): 25 µM |
| CCC(=O)[C@H]1C2CNCC(C2)c2cccc(=O)n21 (single isomer, unassigned; (-)) [(−)-23, 6-Propionyl-1,2,3,4,5,6-hexahydro-1,5-methano-pyrido[1,2-a][1,5]diazocin-8-one] | 18 | 4.80 | 4.64 | 3.52 | 4.85 | 4.30 | 4.70 | 3.55 |  |  |  |  |  |  |  |
| O=c1ccccn1CC1CCCNC1 (centres unmarked) [Compound 6a, 1-(Piperidin-3-ylmethyl)pyridin-2(1H)-one] |  |  |  |  |  |  |  |  | 1.78 | 253 | 18.7 | 159 | 5.55 | 535 | potency estimated from few doses (α2β2 nAChR; [13]): 4.63 µM |
| O=c1ccccn1CC1CCNCC1 [Compound 7a, 1-(Piperidin-4-ylmethyl)pyridin-2(1H)-one] |  |  |  |  |  |  |  |  | 1.6 | 87 | 12 | 80 | 5.4 | 750 |  |
| O=c1cccc2n1C[C@@H]1CNC[C@H]2C1 [(−)-Cytisine (4), (−)-Cytisine] | 144 |  |  |  |  |  |  |  |  |  |  |  |  |  | pEC50 (α4β2 nAChR [5]): ~6.00; pKi (α4β2 nAChR [6]): ~9.00 |
| O=c1ccccn1CC1CCCN(Cc2ccccc2)C1 (centres unmarked) [Compound 6c, 1-[(1-Benzylpiperidin-3-yl)methyl]pyridin-2(1H)-one] |  |  |  |  |  |  |  |  | 0.54 | 54 | 4.3 | 91 | 1.4 | 83 | potency estimated from few doses (α2β2 nAChR; [13]): 100 µM |
| O=c1cc(CO)cc2n1CC1CNCC2C1 (racemic) [rac-17a, 10-(Hydroxymethyl)-1,2,3,4,5,6-hexahydro-1,5-methano-pyrido[1,2-a][1,5]diazocin-8-one] | 909 |  |  |  |  |  |  |  |  |  |  |  |  |  | pKi (α4β2 nAChR [1]): 7.96; pKi (α3β2 nAChR): 6.33; Inhibition of the function of the α3β4 nAChR subtype (α3β4 nAChR subtype): only slightly inhibited; Block of nicotine stimulated responses at α3β4 (α3β4 nAChR subtype): did not significantly block nicotine stimulated responses; inhibition at 100 µM (α4β2 nAChR subtype): > 50%; Block of nicotine stimulated responses at α4β2 (α4β2 nAChR subtype): did not significantly block nicotine stimulated responses; pKi (α2β2 nAChR): 7.49; pKi (α2β4 nAChR): 6.52; pKi (α4β4 nAChR): 7.17; Agonist activity at α4β2 (86Rb+ efflux) (α4β2 nAChR's): did not show agonist activity; pKi (α3β4 nAChR): 5.00 |
| CCCCc1ccc(-c2ccc3n(c2=O)CC2CNCC3C2)cc1 (single isomer, unassigned; (-)) [(−)-21b, 9-(4-Butylphenyl)-1,2,3,4,5,6-hexahydro-1,5-methano-pyrido[1,2-a][1,5]diazocin-8-one] | 17 | 5.09 | 4.68 | 4.44 | 5.10 | 4.55 | 4.89 | 3.85 |  |  |  |  |  |  |  |
| Cc1cc2n(c(=O)c1)CC1CNCC2C1 (racemic) [rac-15, 10-Methyl-1,2,3,4,5,6-hexahydro-1,5-methano-pyrido[1,2-a][1,5]diazocin-8-one] | 3526 |  |  |  |  |  |  |  |  |  |  |  |  |  | pKi (α4β2 nAChR [1]): 8.72; Affinity ratio (α3β4/α4β2) (α4β2 nAChR [1]; listed as 15): > 3000; pKi (α3β2 nAChR): 6.27; Inhibition of the function of the α3β4 nAChR subtype (α3β4 nAChR subtype): only slightly inhibited; Block of nicotine stimulated responses at α3β4 (α3β4 nAChR subtype): did not significantly block nicotine stimulated responses; inhibition at 100 µM (α4β2 nAChR subtype): > 50%; Block of nicotine stimulated responses at α4β2 (α4β2 nAChR subtype): did not significantly block nicotine stimulated responses; pKi (α2β2 nAChR): 8.12; pKi (α2β4 nAChR): 6.74; pKi (α4β4 nAChR): 7.42; Agonist activity at α4β2 (86Rb+ efflux) (α4β2 nAChR's): did not show agonist activity; pKi (α3β4 nAChR): 5.17 |
| Cc1ccc(-c2ccc3n(c2=O)CC2CNCC3C2)s1 (single isomer, unassigned; (-)) [(−)-21c, 9-(5-Methyl-2-thienyl)-1,2,3,4,5,6-hexahydro-1,5-methano-pyrido[1,2-a][1,5]diazocin-8-one] | 59 | 6.41 | 5.92 | 5.22 | 6.30 | 5.77 | 6.23 | 4.64 |  |  |  |  |  |  |  |
| O=c1c(-c2ccc(F)cc2)ccc2n1CC1CNCC2C1 (single isomer, unassigned; (-)) [(−)-21a, 9-(4-Fluorophenyl)-1,2,3,4,5,6-hexahydro-1,5-methano-pyrido[1,2-a][1,5]diazocin-8-one] | 157 | 6.38 | 5.51 | 4.92 | 6.09 | 5.09 | 5.48 | 4.18 |  |  |  |  |  |  |  |
